# Earlier results in publication PMC3473115 (Accounts of chemical research, 2012).
# Test system: HIV-1 gp41
# Settings: read-out: CCF IC50; cell-cell fusion assay
substance,measurement,value
H2N-Trp-[Trp]-Leu-OH [compound 5],IC50,5 µM
